According to PMC9492542, “Brain-restricted mTOR inhibition with binary pharmacology” (Nature, 2022):
Several values for one entry are separate records, joined by “and”; a condition that tells them apart may be missing. Equal entries are not always repeated.

Legend:
[1] = tested on: mTOR; assay: mTOR signalling in mouse whole brain and skeletal muscle after single i.p. dose (immunoblot, insulin stimulated); format: in vivo
Method: Whole brain and skeletal muscle were analyzed by immunoblot.

[2] = molecular target: MTORC1; assay: Equilibrium constants for mTORC1 binding used in the model; details: read-out: Kd4 (drug binding to MTORC1 without FKBP); estimated, affinity of the TORKi portion for MTORC1
[3] = tested on: U87MG; assay: Orthotopic intracranial U87MG-luciferase glioblastoma xenograft
[4] = tested on: GBM43; assay: Orthotopic intracranial GBM43-luciferase patient-derived glioblastoma xenograft; details: GBM43-Luc
[5] = tested on: K562 CRISPRi cells; assay: Cell viability assay (CellTiter-Glo, 72 h) in K562 CRISPRi cells with sgRNA knockdown of FKBP12
Method: Knockdown cells were generated by transducing K562 CRISPRi (sgRNA^–) cells with the sgRNA expression vectors at a multiplicity of infection of less than 1 (20–40% transduction rate) with 8 μg ml^–1 polybrene.
Cells were seeded into 96-well white flat bottom plates (1,000 cells per well) (Corning) and incubated overnight. […] Cell viability was assessed using a commercial CellTiter-Glo (CTG) luminescence-based assay (Promega). In brief, the 96-well plates were equilibrated to room temperature before the addition of diluted CTG reagent (100 μl) (1:4 CTG reagent:PBS). Plates were placed on an orbital shaker for 30 min before recording luminescence using a Spark 20M (TECAN) plate reader.

[6] = tested on: mTOR; assay: Immunoblot analysis of mTOR signalling (p-S6, p-4EBP1) in MCF7 cells, incl. screen for blocking of rapamycin/RapaLink-1
[7] = BALB/c nu/nu mice, RapaLink-1 1 mg per kg, RapaBlock 40 mg per kg, 4 h or 24 h
[8] = U87MG-Luc, day 0, individual mice
[9] = U87MG-Luc, day 5, individual mice
[10] = U87MG-Luc, day 10, individual mice
[11] = U87MG-Luc, day 15, individual mice
[12] = U87MG-Luc, day 20, individual mice
[13] = U87MG-Luc, day 25, individual mice

CO[C@H]1C[C@@H]2CC[C@@H](C)[C@@](O)(O2)C(=O)C(=O)N2CCCC[C@H]2C(=O)O[C@H]([C@H](C)C[C@@H]2CC[C@@H](OCCOCc3cn(CCOCCOCCOCCOCCOCCOCCOCCOCCC(=O)NCCCCn4nc(-c5ccc6oc(N)nc6c5)c5c(N)ncnc54)nn3)[C@H](OC)C2)CC(=O)[C@H](C)/C=C(\C)[C@@H](O)[C@@H](OC)C(=O)[C@H](C)C[C@H](C)/C=C/C=C/C=C/1C [RapaLink-1]
p-RPS6 Muscle, fold relative to no insulin, normalized to GAPDH ([1]; 24h, RL1 1 mg/kg, RB 40 mg/kg, insulin 250 mU, listed as RL1): 1.11 and 1.39
mTOR activity in brain (p-S6, p-4EBP1) [1, 7]: potently inhibited mTOR signalling in both skeletal muscle and brain tissues
mTOR activity in skeletal muscle (p-S6, p-4EBP1) [1, 7]: potently inhibited mTOR signalling in both skeletal muscle and brain tissues
Kd [2]: 5 nM
tumour growth and survival ([3]; RapaLink-1 1 mg per kg, RapaBlock 40 mg per kg, i.p. every 5 days): significantly suppressed tumour growth and improved survival
Mouse weight [3, 8]: 25.3 g and 21.6 g and 19 g and 22.3 g and 21.7 g and 23.2 g
Tumor size (measured by bioluminescence) [3, 8]: 4240000 and 1010000 and 1910000 and 5080000 and 3680000 and 9440000
Mouse weight [3, 9]: 26.2 g and 22.3 g and 20.2 g and 23.3 g and 23.2 g (2×)
Tumor size (measured by bioluminescence) [3, 9]: 1460000 and 640000 and 1800000 and 5970000 and 155000 and 7230000
Mouse weight [3, 10]: 26.1 g and 22.4 g (2×) and 20.7 g and 22.7 g and 21.8 g
Tumor size (measured by bioluminescence) [3, 10]: 3420000 and 1030000 and 12000000 and 3100000 and 5850000 and 4400000
Mouse weight [3, 11]: 25.2 g and 22 g and 20.3 g and 23.7 g and 23.4 g and 21.9 g
Tumor size (measured by bioluminescence) [3, 11]: 11100000 and 3790000 and 12200000 and 19000000 and 408000 and 7800000
Mouse weight [3, 12]: 26.4 g and 22.6 g and 21.3 g and 25.8 g and 23.9 g and 23.3 g
Tumor size (measured by bioluminescence) [3, 12]: 53600000 and 17300000 and 32400000 and 53200000 and 63600000 and 11500000
Mouse weight [3, 13]: 22.4 g and 22.3 g and 20.3 g and 24.8 g and 21.6 g and 23.4 g
Tumor size (measured by bioluminescence) [3, 13]: 605000000 and 412000000 and 640000000 and 201000000 and 1240000000 and 128000000
Tumor size (measured by bioluminescence) ([3]; U87MG-Luc, day 30, individual mice): 1100000000 and 366000000 and 814000000 and 167000000
Mouse survival ([3]; U87MG-Luc, individual mice, listed as RL-1): 32 days and 30 days and 41 days and 40 days
Mouse weight ([4]; day 0, individual mice): 23.5 g and 21.9 g and 22.3 g and 22.1 g and 19.3 g and 21.6 g
Tumor size (measured by bioluminescence) ([4]; day 0, individual mice): 9520000 and 3020000 and 1670000 and 519000 and 248000 and 80200
Mouse weight ([4]; day 4, individual mice): 22.9 g and 20.8 g and 22.2 g (2×) and 23.1 g and 20.1 g
Tumor size (measured by bioluminescence) ([4]; day 4, individual mice): 1310000 and 940000 and 1040000 and 482000 and 175000 and 141000
Mouse weight ([4]; day 7, individual mice): 22.7 g and 19.8 g and 21.2 g and 20.8 g and 19.6 g and 22.9 g
Tumor size (measured by bioluminescence) ([4]; day 7, individual mice): 121000000 and 131000000 and 102000000 and 25200000 and 4850000
Mouse weight ([4]; day 10, individual mice): 20.5 g and 20.2 g and 21.6 g and 20.6 g and 19.4 g and 22 g
Tumor size (measured by bioluminescence) ([4]; day 10, individual mice): 686000000 and 671000000 and 515000000 and 1100000000 and 3050000000 and 2140000
Mouse survival ([4]; individual mice, listed as RL-1): 17 days and 18 days and 19 days
cell growth (K562-dCas9-KRAB) ([5]; FKBP12 sgRNA-1, 0.0152416 nM): 105.506 and 102.628 and 96.1562
cell growth (K562-dCas9-KRAB) ([5]; FKBP12 sgRNA-1, 0.0457247 nM): 105.668 and 102.078 and 85.8686
cell growth (K562-dCas9-KRAB) ([5]; FKBP12 sgRNA-1, 1.23457 nM): 94.9833 and 94.8438 and 86.0533
cell growth (K562-dCas9-KRAB) ([5]; FKBP12 sgRNA-1, 3.7037 nM): 89.3098 and 83.2596 and 72.1854
cell growth (K562-dCas9-KRAB) ([5]; FKBP12 sgRNA-1, 11.1111 nM): 53.7829 and 50.941 and 46.1745
cell growth (K562-dCas9-KRAB) ([5]; FKBP12 sgRNA-1, 33.3333 nM): 28.0164 and 26.1284 and 21.6828
cell growth (K562-dCas9-KRAB) ([5]; FKBP12 sgRNA-2, 0.0152416 nM): 97.2191 and 100.632 and 101.126
cell growth (K562-dCas9-KRAB) ([5]; FKBP12 sgRNA-2, 0.0457247 nM): 97.7063 and 99.4263 and 97.7491
cell growth (K562-dCas9-KRAB) ([5]; FKBP12 sgRNA-2, 0.137174 nM): 95.7095 and 97.9482 and 99.6852
cell growth (K562-dCas9-KRAB) ([5]; FKBP12 sgRNA-2, 1.23457 nM): 93.7321 and 94.186 and 93.5157
cell growth (K562-dCas9-KRAB) ([5]; FKBP12 sgRNA-2, 3.7037 nM): 38.5541 and 41.9621 and 38.7138
cell growth (K562-dCas9-KRAB) ([5]; FKBP12 sgRNA-2, 11.1111 nM): 19.9055 and 20.364 and 21.1046
cell growth (K562-dCas9-KRAB) ([5]; FKBP12 sgRNA-2, 33.3333 nM): 15.1403 and 14.2518 and 15.8
cell growth (K562-dCas9-KRAB) ([5]; GAL4-4 sgRNA, 0.0152416 nM): 101.863 and 99.8606 and 100.119
cell growth (K562-dCas9-KRAB) ([5]; GAL4-4 sgRNA, 0.0457247 nM): 103.056 and 100.129 and 98.9614
cell growth (K562-dCas9-KRAB) ([5]; GAL4-4 sgRNA, 0.137174 nM): 97.8709
cell growth (K562-dCas9-KRAB) ([5]; GAL4-4 sgRNA, 1.23457 nM): 71.632 and 70.4313 and 67.4428
cell growth (K562-dCas9-KRAB) ([5]; GAL4-4 sgRNA, 3.7037 nM): 17.746 and 15.8338 and 15.2774
cell growth (K562-dCas9-KRAB) ([5]; GAL4-4 sgRNA, 11.1111 nM): 13.9448 and 13.723 and 15.0323
cell growth (K562-dCas9-KRAB) ([5]; GAL4-4 sgRNA, 33.3333 nM): 13.6321 and 13.22 and 14.5715
cellular activity after CRISPRi knockdown of FKBP12 ([5]; K562 dCas9-KRAB, two sgRNAs): drastically impeded its cellular activity
cell growth (K562-dCas9-KRAB) ([5]; No sgRNA + 10 μM FK506, 0.0152416 nM): 90.7304 and 95.49 and 92.3837
cell growth (K562-dCas9-KRAB) ([5]; No sgRNA + 10 μM FK506, 0.0457247 nM): 91.7724 and 93.2742 and 91.026
cell growth (K562-dCas9-KRAB) ([5]; No sgRNA + 10 μM FK506, 0.137174 nM): 91.4157 and 89.1222 and 88.9009
cell growth (K562-dCas9-KRAB) ([5]; No sgRNA + 10 μM FK506, 1.23457 nM): 91.763 and 90.0617 and 88.7417
cell growth (K562-dCas9-KRAB) ([5]; No sgRNA + 10 μM FK506, 3.7037 nM): 89.7918 and 91.174 and 89.4532
cell growth (K562-dCas9-KRAB) ([5]; No sgRNA + 10 μM FK506, 11.1111 nM): 86.3008 and 85.9782 and 86.561
cell growth (K562-dCas9-KRAB) ([5]; No sgRNA + 10 μM FK506, 33.3333 nM): 70.168 and 69.6522 and 67.2473
cell growth (K562-dCas9-KRAB) ([5]; No sgRNA, 0.0152416 nM): 98.221 and 102.996 and 99.7082
cell growth (K562-dCas9-KRAB) ([5]; No sgRNA, 0.0457247 nM): 104.804 and 96.4373 and 102.095
cell growth (K562-dCas9-KRAB) ([5]; No sgRNA, 0.137174 nM): 98.0154 and 97.5628 and 102.366
cell growth (K562-dCas9-KRAB) ([5]; No sgRNA, 1.23457 nM): 69.0104 and 68.6714 and 68.1063
cell growth (K562-dCas9-KRAB) ([5]; No sgRNA, 3.7037 nM): 15.0031 and 16.0719 and 14.3485
cell growth (K562-dCas9-KRAB) ([5]; No sgRNA, 11.1111 nM): 13.4023 and 12.2624 and 12.6642
cell growth (K562-dCas9-KRAB) ([5]; No sgRNA, 33.3333 nM): 12.1483 and 12.1908 and 11.8583
phospho-S6 (S240/244) and phospho-4EBP (T37/46) levels ([6]; MCF7, 10 nM RapaLink-1): almost undetectable levels
phospho-S6 (S240/244) and phospho-4EBP (T37/46) levels ([6]; MCF7, 10 nM RapaLink-1 + 10 µM FK506): showed no effect on either marker
